Values quoted from earlier work in patent US8158648B2, “Heteroaryl 11-beta hydroxysteroid dehydrogenase type I inhibitors” (priority 2005, dated 2012).

Test system: hepatic glucose production
Conditions: mildly overweight individuals with type 2 diabetes, seven days, versus placebo

CC1(C)[C@@H](OC(=O)CCC(=O)O)CC[C@]2(C)[C@H]3C(=O)C=C4[C@@H]5C[C@@](C)(C(=O)O)CC[C@]5(C)CC[C@@]4(C)[C@]3(C)CC[C@@H]12 [carbenoxolone]
hepatic glucose production: decrease in hepatic glucose production
